The values that follow are results of earlier work, collected in patent publication US8470366B2, “Nicotine containing soft gelatin pastilles” (priority 2010, dated 2013).

For data set [1] the following is noted: background statement.
The conditions of data set [2]: background statement. This is another data set of the same source.

Each structure is given as a SMILES string.

Regarding `CN1CCCC1c1cccnc1` (centres unmarked) [nicotine, Nicotine], the “Half life of nicotine in the body” value in data set [1] was “around two”.

On to `CN1CCCC1c1cccnc1` (single isomer, unassigned; (+)) [(+) nicotine], for which the “Physiological activity relative to (−) nicotine” value in data set [2] is “one-half”.
